Experimental data as given in US20260130395A1, “Water Dispersible Botanical Compositions” (Aquila Black Limited, priority 2021, published 2026).

Key:
[1] = Stability of cannabinoid compounds and Vitamin E components in Beverage 1 (AB White) by LCMSMS; type: physicochemical
[2] = Stability of cannabinoid entourage and Vitamin E components of the powder concentrate by LCMSMS; type: physicochemical; conditions: powder stored at 21-25° C.
Protocol: At each time period, 0.05 g of powder was dissolved in 10 ml-15 of ethanol, diluted to fall within the analytical range, and injected into the LCMSMS for analysis.

Cc1c(C)c2c(c(C)c1O)CC[C@@](C)(CCC[C@H](C)CCC[C@H](C)CCCC(C)C)O2 [α-Tocopherol]
Stability of Vitamin Es in AB White ([1]; stored at 8° C., 0 days): 26.1 µg/mL
Stability of Vitamin Es in AB White ([1]; stored at 8° C., 1 days): 24.90 µg/mL
Stability of Vitamin Es in AB White ([1]; stored at 8° C., 2 days): 23.46 µg/mL
Stability of Vitamin Es in AB White ([1]; stored at 8° C., 3 days): 23.21 µg/mL
Stability of Vitamin Es in AB White ([1]; stored at 8° C., 5 days): 23.39 µg/mL
Stability of Vitamin Es in AB White ([1]; stored at 8° C., 8 days): 24.65 µg/mL
Stability of Vitamin Es in AB White ([1]; stored at 8° C., 9 days): 24.42 µg/mL
Stability of Vitamin Es in AB White ([1]; stored at 8° C., 10 days): 24.57 µg/mL
Stability of Vitamin Es in AB White ([1]; stored at 8° C., 11 days): 25.45 µg/mL
Stability of Vitamin Es in AB White ([1]; stored at 8° C., 12 days): 23.97 µg/mL
Stability of Vitamin Es in AB White ([1]; stored at 8° C., 15 days): 25.48 µg/mL
Stability of Vitamin Es in AB White ([1]; stored at 8° C., 16 days): 25.02 µg/mL
Stability of Vitamin Es in AB White ([1]; stored at 8° C., 17 days): 24.17 µg/mL
Stability of Vitamin Es in AB White ([1]; stored at 8° C., 18 days): 23.28 µg/mL
Stability of Vitamin Es in AB White ([1]; stored at 8° C., 19 days): 24.12 µg/mL
Stability of Vitamin Es in AB White ([1]; stored at 8° C., 22 days): 23.51 µg/mL
Stability of Vitamin Es in AB White ([1]; stored at 8° C., 23 days): 24.27 µg/mL
Stability of Vitamin Es in AB White ([1]; stored at 8° C., 24 days): 24.72 µg/mL
Stability of Vitamin Es in AB White ([1]; stored at 8° C., 25 days): 25.28 µg/mL
Stability of Vitamin Es in AB White ([1]; stored at 8° C., 26 days): 25.25 µg/mL
Stability of Vitamin Es in AB White ([1]; stored at 8° C., 29 days): 24.87 µg/mL
Stability of Vitamin Es in AB White ([1]; stored at 8° C., 30 days): 23.64 µg/mL
Stability of Vitamin Es in AB White ([1]; stored at 8° C., 60 days): 22.96 µg/mL
Stability of Vitamin Es in AB White ([1]; stored at 8° C., 90 days): 24.27 µg/mL
Stability of Vitamin Es in AB White ([1]; stored at 8° C., 120 days): 23.01 µg/mL
Stability of Vitamin Es in AB White ([1]; stored at 8° C., 150 days): 24.32 µg/mL
Stability of Vitamin Es in AB White ([1]; stored at 8° C., 180 days): 24.54 µg/mL
Stability of Vitamin Es in AB White ([1]; stored at 8° C., 210 days): 23.71 µg/mL
Stability of Vitamin Es in AB White ([1]; stored at 8° C., 240 days): 22.68 µg/mL
Stability of Vitamin Es in AB White ([1]; stored at 8° C., 270 days): 22.68 µg/mL
Stability of Vitamin Es in AB White ([1]; stored at 8° C., 300 days): 22.76 µg/mL
Stability of Vitamin Es in AB White ([1]; stored at 8° C., 330 days): 23.21 µg/mL
Stability of Vitamin Es in AB White ([1]; stored at 8° C., 360 days): 22.25 µg/mL
Stability of Vitamin Es in AB White ([1]; stored at 8° C., 390 days): 22.45 µg/mL
Stability of Vitamin Es in AB White ([1]; stored at 8° C., 420 days): 22.35 µg/mL
Stability of Vitamin Es in AB White ([1]; stored at 8° C., 450 days): 22.88 µg/mL
Stability of Vitamin Es in AB White ([1]; stored at 8° C., 480 days): 22.05 µg/mL
Stability of Vitamin Es in AB White ([1]; stored at 8° C., 510 days): 21.32 µg/mL
Stability of Vitamin Es in AB White ([1]; stored at 8° C., 540 days): 21.72 µg/mL
Stability of Vitamin Es in AB White ([1]; stored at 8° C., 570 days): 22.00 µg/mL
Stability of Vitamin Es in AB White ([1]; stored at 21-25° C., 0 days): 26.1 µg/mL
Stability of Vitamin Es in AB White ([1]; stored at 21-25° C., 1 days): 25.1 µg/mL
Stability of Vitamin Es in AB White ([1]; stored at 21-25° C., 2 days): 25.5 µg/mL
Stability of Vitamin Es in AB White ([1]; stored at 21-25° C., 3 days): 25.8 µg/mL
Stability of Vitamin Es in AB White ([1]; stored at 21-25° C., 5 days): 25.4 µg/mL
Stability of Vitamin Es in AB White ([1]; stored at 21-25° C., 8 days): 23.9 µg/mL
Stability of Vitamin Es in AB White ([1]; stored at 21-25° C., 9 days): 25.3 µg/mL
Stability of Vitamin Es in AB White ([1]; stored at 21-25° C., 10 days): 26.3 µg/mL
Stability of Vitamin Es in AB White ([1]; stored at 21-25° C., 11 days): 26.0 µg/mL
Stability of Vitamin Es in AB White ([1]; stored at 21-25° C., 12 days): 24.6 µg/mL
Stability of Vitamin Es in AB White ([1]; stored at 21-25° C., 15 days): 23.9 µg/mL
Stability of Vitamin Es in AB White ([1]; stored at 21-25° C., 16 days): 24.2 µg/mL
Stability of Vitamin Es in AB White ([1]; stored at 21-25° C., 17 days): 26.2 µg/mL
Stability of Vitamin Es in AB White ([1]; stored at 21-25° C., 18 days): 25.3 µg/mL
Stability of Vitamin Es in AB White ([1]; stored at 21-25° C., 19 days): 23.8 µg/mL
Stability of Vitamin Es in AB White ([1]; stored at 21-25° C., 22 days): 25.7 µg/mL
Stability of Vitamin Es in AB White ([1]; stored at 21-25° C., 23 days): 23.8 µg/mL
Stability of Vitamin Es in AB White ([1]; stored at 21-25° C., 24 days): 25.8 µg/mL
Stability of Vitamin Es in AB White ([1]; stored at 21-25° C., 25 days): 25.0 µg/mL
Stability of Vitamin Es in AB White ([1]; stored at 21-25° C., 26 days): 24.8 µg/mL
Stability of Vitamin Es in AB White ([1]; stored at 21-25° C., 29 days): 26.1 µg/mL
Stability of Vitamin Es in AB White ([1]; stored at 21-25° C., 30 days): 23.9 µg/mL
Stability of Vitamin Es in AB White ([1]; stored at 21-25° C., 60 days): 25.0 µg/mL
Stability of Vitamin Es in AB White ([1]; stored at 21-25° C., 90 days): 23.7 µg/mL
Stability of Vitamin Es in AB White ([1]; stored at 21-25° C., 120 days): 24.7 µg/mL
Stability of Vitamin Es in AB White ([1]; stored at 21-25° C., 150 days): 24.4 µg/mL
Stability of Vitamin Es in AB White ([1]; stored at 21-25° C., 180 days): 23.6 µg/mL
Stability of Vitamin Es in AB White ([1]; stored at 21-25° C., 210 days): 23.1 µg/mL
Stability of Vitamin Es in AB White ([1]; stored at 21-25° C., 240 days): 24.2 µg/mL
Stability of Vitamin Es in AB White ([1]; stored at 21-25° C., 270 days): 23.1 µg/mL
Stability of Vitamin Es in AB White ([1]; stored at 21-25° C., 300 days): 24.2 µg/mL
Stability of Vitamin Es in AB White ([1]; stored at 21-25° C., 330 days): 24.4 µg/mL
Stability of Vitamin Es in AB White ([1]; stored at 21-25° C., 360 days): 23.6 µg/mL
Stability of Vitamin Es in AB White ([1]; stored at 21-25° C., 390 days): 23.1 µg/mL
Stability of Vitamin Es in AB White ([1]; stored at 21-25° C., 420 days): 22.8 µg/mL
Stability of Vitamin Es in AB White ([1]; stored at 21-25° C., 450 days): 23.4 µg/mL
Stability of Vitamin Es in AB White ([1]; stored at 21-25° C., 480 days): 21.6 µg/mL
Stability of Vitamin Es in AB White ([1]; stored at 21-25° C., 510 days): 21.9 µg/mL
Stability of Vitamin Es in AB White ([1]; stored at 21-25° C., 540 days): 22.0 µg/mL
Stability of Vitamin Es in AB White ([1]; stored at 21-25° C., 570 days): 22.2 µg/mL
Stability of Vitamin Es in Powder Concentrate ([2]; 0 days): 4.85 mg/g powder
Stability of Vitamin Es in Powder Concentrate ([2]; 1 days): 4.89 mg/g powder
Stability of Vitamin Es in Powder Concentrate ([2]; 2 days): 4.79 mg/g powder
Stability of Vitamin Es in Powder Concentrate ([2]; 3 days): 4.69 mg/g powder
Stability of Vitamin Es in Powder Concentrate ([2]; 5 days): 4.99 mg/g powder
Stability of Vitamin Es in Powder Concentrate ([2]; 8 days): 4.69 mg/g powder
Stability of Vitamin Es in Powder Concentrate ([2]; 9 days): 4.75 mg/g powder
Stability of Vitamin Es in Powder Concentrate ([2]; 10 days): 4.77 mg/g powder
Stability of Vitamin Es in Powder Concentrate ([2]; 11 days): 5.04 mg/g powder
Stability of Vitamin Es in Powder Concentrate ([2]; 12 days): 5.01 mg/g powder
Stability of Vitamin Es in Powder Concentrate ([2]; 15 days): 5.07 mg/g powder
Stability of Vitamin Es in Powder Concentrate ([2]; 16 days): 4.96 mg/g powder
Stability of Vitamin Es in Powder Concentrate ([2]; 17 days): 4.94 mg/g powder
Stability of Vitamin Es in Powder Concentrate ([2]; 18 days): 4.77 mg/g powder
Stability of Vitamin Es in Powder Concentrate ([2]; 19 days): 5.04 mg/g powder
Stability of Vitamin Es in Powder Concentrate ([2]; 22 days): 4.94 mg/g powder
Stability of Vitamin Es in Powder Concentrate ([2]; 23 days): 4.91 mg/g powder
Stability of Vitamin Es in Powder Concentrate ([2]; 24 days): 5.00 mg/g powder
Stability of Vitamin Es in Powder Concentrate ([2]; 25 days): 5.06 mg/g powder
Stability of Vitamin Es in Powder Concentrate ([2]; 26 days): 4.84 mg/g powder
Stability of Vitamin Es in Powder Concentrate ([2]; 29 days): 4.85 mg/g powder
Stability of Vitamin Es in Powder Concentrate ([2]; 30 days): 4.83 mg/g powder
Stability of Vitamin Es in Powder Concentrate ([2]; 60 days): 4.91 mg/g powder
Stability of Vitamin Es in Powder Concentrate ([2]; 90 days): 4.96 mg/g powder
Stability of Vitamin Es in Powder Concentrate ([2]; 120 days): 4.93 mg/g powder
Stability of Vitamin Es in Powder Concentrate ([2]; 150 days): 4.69 mg/g powder
Stability of Vitamin Es in Powder Concentrate ([2]; 180 days): 4.70 mg/g powder
Stability of Vitamin Es in Powder Concentrate ([2]; 210 days): 4.84 mg/g powder
Stability of Vitamin Es in Powder Concentrate ([2]; 240 days): 5.03 mg/g powder
Stability of Vitamin Es in Powder Concentrate ([2]; 270 days): 4.78 mg/g powder
Stability of Vitamin Es in Powder Concentrate ([2]; 300 days): 4.81 mg/g powder
Stability of Vitamin Es in Powder Concentrate ([2]; 330 days): 4.81 mg/g powder
Stability of Vitamin Es in Powder Concentrate ([2]; 360 days): 4.83 mg/g powder
Stability of Vitamin Es in Powder Concentrate ([2]; 390 days): 4.91 mg/g powder
Stability of Vitamin Es in Powder Concentrate ([2]; 420 days): 4.69 mg/g powder
Stability of Vitamin Es in Powder Concentrate ([2]; 450 days): 5.00 mg/g powder
Stability of Vitamin Es in Powder Concentrate ([2]; 480 days): 4.98 mg/g powder
Stability of Vitamin Es in Powder Concentrate ([2]; 510 days): 5.02 mg/g powder
Stability of Vitamin Es in Powder Concentrate ([2]; 540 days): 5.03 mg/g powder
Stability of Vitamin Es in Powder Concentrate ([2]; 570 days): 4.72 mg/g powder
